Data reported in patent US9067945B2, “Selective phosphodiesterase 9A inhibitors as medicaments for improving cognitive processes” (Boehringer Ingehleim International GmbH, priority 2002, dated 2015).
Entries after “also recorded” stand apart in the source; their conditions may differ.

Tests used:
Human PDE9A = Human PDE9A (Homo sapiens (Human), UniProt O76083); conditions: concentrations of up to 100 μM; cited from earlier work
Murine PDE9A = Murine PDE9A (Mus musculus (Mouse), UniProt O70628); conditions: concentrations below 200 μM; cited from earlier work
PDE11 = PDE11 (Homo sapiens (Human), UniProt Q9HCR9); experiment: PDE inhibition, recombinant PDE11A (SPA); format: biochemical; conditions: Isoenzyme PDE11, human
Excerpt: (§1) Recombinant PDE1C (GenBank/EMBL Accession Number: NM_005020, Loughney et al. J. Biol. Chem. 1996 271, 796-806), PDE2A (GenBank/EMBL Accession Number: NM_002599, Rosman et al. Gene 1997 191, 89-95), PDE3B (GenBank/EMBL Accession Number: NM_000922, Miki et al. Genomics 1996, 36, 476-485), PDE4B (GenBank/EMBL Accession Number: NM_002600, Obernolte et al. Gene. 1993, 129, 239-247), PDE5A (GenBank/EMBL Accession Number: NM_001083, Loughney et al. Gene 1998, 216, 139-147), PDE7B (GenBank/EMBL Accession Number: NM_018945, Hetman et al. Proc. Natl. Acad. Sci. U.S.A. 2000, 97, 472-476), PDE8A (GenBank/EMBL Accession Number: AF—056490, Fisher et al. Biochem. Biophys. Res. Commun. […]
(§2) The test substances are dissolved in 100% DMSO and serially diluted to determine their in vitro effect on PDE 9A. […] The plates are then measured for 30 s per well in a Microbeta scintillation counter (Wallac Inc., Atlanta, Ga.). IC50 values are determined from the graphical plot of the substance concentration versus the percentage inhibition.
(§3) The in vitro effect of test substances on recombinant PDE3B, PDE4B, PDE7B, PDE8A, PDE10A and PDE11A is determined in accordance with the assay protocol described above for PDE9A with the following adaptations: [5′,8-^3H] adenosine 3′,5′-cyclic phosphate (1 μCi/μL; Amersham Pharmacia Biotech., Piscataway, N.J.) is used as substrate. […]

PDE4B = PDE4B (Homo sapiens (Human), UniProt Q07343); experiment: PDE inhibition, recombinant PDE4B (SPA); format: biochemical; conditions: Isoenzyme PDE4B
[1] = tested on: rat hippocampus slices, fEPSP after weak tetanus; experiment: Long-term potentiation in hippocampus slices; conditions: 10 μM, flushed in 10 minutes before to 30 minutes after weak tetanus, vs 0.01% DMSO control, FIG. 2
PDE3B = PDE3B (Homo sapiens (Human), UniProt Q13370); experiment: PDE inhibition, recombinant PDE3B (SPA); format: biochemical; conditions: Isoenzyme PDE3B
Excerpt: as §1, §2, §3

PDE8A = PDE8A (Homo sapiens, UniProt O60658); experiment: PDE inhibition, recombinant PDE8A (SPA); format: biochemical; conditions: Isoenzyme PDE8A
[2] = tested on: primary rat (E18) cortex cultures, intracellular cGMP; experiment: Increasing the intracellular neuronal cGMP concentration in cell cultures; format: cell-based; conditions: primary rat cortical neurons, incubation 20 min, FIG. 1
Method: Rat embryos (embryonic day E17-E19) were decapitated, and the heads were transferred into dissection dishes filled with dissection medium (DMEM, penicillin/streptomycin; both from Gibco). The scalp and the roof of the skull were removed, and the exposed brains were transferred into another Petri dish with dissection medium. Using a binocular microscope and two forceps, the cerebrum (cortex) was isolated and cooled to 4° C. with ice. This dissection and the isolation of the cortical neurons were then carried out in accordance with a standard protocol using the Papain kit (Worthington Biochemical Corporation, Lakewood, N.J. 08701, USA) (Huettner et al. J. Neurosci. 1986, 6, 3044-3060). The mechanically isolated cortical neurons were cultivated at 150,000 cells/well in 200 μl of neurobasal medium/well (neurobasal; B27 supplement; 2 mM L-glutamine; in the presence of penicillin/streptomycin; all agents from Gibco) in 96-well plates (pretreated with poly-D-lysine/100 μg/ml for 30 min) under standard conditions (37° C., 5% CO2) for 7 days. After 7 days, the medium was removed and the cells were washed with HBSS buffer (Hank's balanced salt solution, Gibco/BRL). […] Subsequently, the cells were lyzed in 200 μl of lysis buffer (cGMP kit code RPN 226; from Amersham Pharmacia Biotech.), and the cGMP concentration was measured as stated by the manufacturer. […]

PDE2A = PDE2A (Homo sapiens (Human), UniProt O00408); experiment: PDE inhibition, recombinant PDE2A (SPA); format: biochemical; conditions: Isoenzyme PDE2A
Excerpt: as §1, §2, §3

[3] = tested on: rats, learning and memory; experiment: Social recognition test; format: in vivo, rat; conditions: intraperitoneal 0.1-3.0 mg/kg directly after trial 1, retention time 24 hours, FIG. 3
Method: Adult rats housed in groups were placed singly in test cages 30 min before the start of the test. Four minutes before the start of the test, the test animal was put in an observation box. After this adaptation time, a juvenile animal was put in with the test animal and the absolute time for which the adult animal inspected the young one was measured for 2 min (trial 1). All behaviors clearly directed at the young animal were measured, i.e. anogenital inspection, pursuit and grooming, during which the old animal was no further than 1 cm from the young animal. The juvenile was then removed, and the adult was treated with Example 2 or vehicle and subsequently returned to its own cage. The test was repeated after a retention time of 24 hours (trial 2). A diminished social interaction time compared with trial 1 would indicate that the adult rat remembers the young animal.
The adult animals received intraperitoneal injections directly following trial 1 either with vehicle (10% ethanol, 20% Solutol, 70% physiological saline) or 0.1 mg/kg, 0.3 mg/kg, 1.0 mg/kg or 3.0 mg/kg of Example 2 dissolved in 10% ethanol, 20% Solutol, 70% physiological saline. […] They had consequently forgotten that they had already had contact with the young animal.

PDE7B = PDE7B (Homo sapiens (Human), UniProt Q9NP56); experiment: PDE inhibition, recombinant PDE7B (SPA); format: biochemical; conditions: Isoenzyme PDE7B
Excerpt: as §1, §2, §3

PDE10A = PDE10A (Homo sapiens (Human), UniProt Q9Y233); experiment: PDE inhibition, recombinant PDE10A (SPA); format: biochemical; conditions: Isoenzyme PDE10A
Excerpt: as §1, §2, §3

PDE5A = PDE5A (Homo sapiens (Human), UniProt O76074); experiment: PDE inhibition, recombinant PDE5A (SPA); format: biochemical; conditions: Isoenzyme PDE5A
Excerpt: as §1, §2, §3

Human PDE9A, sequence (O76083 whole entry): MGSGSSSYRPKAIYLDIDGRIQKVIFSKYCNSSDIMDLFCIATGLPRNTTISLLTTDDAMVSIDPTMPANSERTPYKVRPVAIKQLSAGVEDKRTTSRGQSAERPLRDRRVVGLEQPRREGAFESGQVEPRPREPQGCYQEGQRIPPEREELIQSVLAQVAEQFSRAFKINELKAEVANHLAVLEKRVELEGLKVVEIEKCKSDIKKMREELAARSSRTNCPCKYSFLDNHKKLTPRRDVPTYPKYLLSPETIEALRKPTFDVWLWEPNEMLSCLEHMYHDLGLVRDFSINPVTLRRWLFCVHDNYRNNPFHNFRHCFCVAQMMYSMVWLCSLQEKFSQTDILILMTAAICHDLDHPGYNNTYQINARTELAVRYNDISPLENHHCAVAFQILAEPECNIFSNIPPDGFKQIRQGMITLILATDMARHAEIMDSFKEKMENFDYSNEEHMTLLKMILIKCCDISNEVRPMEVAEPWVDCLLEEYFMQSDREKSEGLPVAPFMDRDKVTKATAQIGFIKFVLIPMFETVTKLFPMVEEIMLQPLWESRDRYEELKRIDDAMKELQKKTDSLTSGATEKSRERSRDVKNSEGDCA
PDE3B, sequence (Q13370 whole entry): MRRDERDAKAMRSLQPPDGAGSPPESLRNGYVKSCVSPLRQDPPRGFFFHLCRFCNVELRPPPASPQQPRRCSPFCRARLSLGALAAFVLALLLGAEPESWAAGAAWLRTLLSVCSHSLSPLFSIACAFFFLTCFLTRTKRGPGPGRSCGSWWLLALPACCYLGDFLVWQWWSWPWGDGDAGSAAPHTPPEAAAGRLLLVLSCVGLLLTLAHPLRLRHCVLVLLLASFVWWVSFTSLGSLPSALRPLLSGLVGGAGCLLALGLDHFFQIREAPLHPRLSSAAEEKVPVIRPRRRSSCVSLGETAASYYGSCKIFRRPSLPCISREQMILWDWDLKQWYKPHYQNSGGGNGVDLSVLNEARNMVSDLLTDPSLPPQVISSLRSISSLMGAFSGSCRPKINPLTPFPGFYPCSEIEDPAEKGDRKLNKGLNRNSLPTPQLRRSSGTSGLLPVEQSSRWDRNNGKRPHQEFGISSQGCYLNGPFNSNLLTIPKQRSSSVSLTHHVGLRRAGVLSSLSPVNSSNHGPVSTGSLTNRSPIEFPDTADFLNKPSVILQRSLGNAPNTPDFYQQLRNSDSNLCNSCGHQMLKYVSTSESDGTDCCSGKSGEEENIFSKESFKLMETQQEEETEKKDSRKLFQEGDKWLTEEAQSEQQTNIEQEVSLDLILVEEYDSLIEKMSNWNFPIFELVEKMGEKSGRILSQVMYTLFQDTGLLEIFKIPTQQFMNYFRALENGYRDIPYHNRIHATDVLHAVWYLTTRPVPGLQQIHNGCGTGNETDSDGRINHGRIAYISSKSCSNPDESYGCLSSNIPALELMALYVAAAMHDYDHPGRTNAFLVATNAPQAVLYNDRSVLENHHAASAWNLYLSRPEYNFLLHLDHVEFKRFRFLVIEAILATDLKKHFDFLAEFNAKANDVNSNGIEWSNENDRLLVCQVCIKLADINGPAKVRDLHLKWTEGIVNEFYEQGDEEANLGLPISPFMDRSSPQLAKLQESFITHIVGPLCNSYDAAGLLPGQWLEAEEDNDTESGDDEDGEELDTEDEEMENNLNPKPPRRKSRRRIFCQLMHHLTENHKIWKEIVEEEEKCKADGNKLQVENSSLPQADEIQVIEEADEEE
PDE10A, sequence (Q9Y233 other isoform, or with tags, fused parts or gaps): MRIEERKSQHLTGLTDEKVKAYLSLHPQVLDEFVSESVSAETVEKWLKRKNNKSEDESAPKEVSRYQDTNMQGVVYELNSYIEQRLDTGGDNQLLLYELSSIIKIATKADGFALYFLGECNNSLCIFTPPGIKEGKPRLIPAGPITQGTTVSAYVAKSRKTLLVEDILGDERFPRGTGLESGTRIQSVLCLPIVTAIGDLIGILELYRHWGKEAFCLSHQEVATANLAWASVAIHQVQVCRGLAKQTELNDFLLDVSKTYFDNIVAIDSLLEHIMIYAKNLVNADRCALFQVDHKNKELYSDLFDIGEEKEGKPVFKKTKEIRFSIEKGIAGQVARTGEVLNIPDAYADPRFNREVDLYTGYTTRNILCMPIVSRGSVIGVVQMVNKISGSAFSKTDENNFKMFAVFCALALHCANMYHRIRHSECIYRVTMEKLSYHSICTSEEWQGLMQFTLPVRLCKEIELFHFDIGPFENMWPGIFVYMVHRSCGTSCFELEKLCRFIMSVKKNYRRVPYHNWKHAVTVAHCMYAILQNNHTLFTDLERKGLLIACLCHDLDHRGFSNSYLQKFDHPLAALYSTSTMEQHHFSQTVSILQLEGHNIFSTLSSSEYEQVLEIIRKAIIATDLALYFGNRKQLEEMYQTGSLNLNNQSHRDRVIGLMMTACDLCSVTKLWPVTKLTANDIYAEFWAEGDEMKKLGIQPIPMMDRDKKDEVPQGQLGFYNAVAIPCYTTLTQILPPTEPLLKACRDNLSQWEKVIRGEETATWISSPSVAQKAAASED
PDE11, sequence (Q9HCR9 445-933, change not shown): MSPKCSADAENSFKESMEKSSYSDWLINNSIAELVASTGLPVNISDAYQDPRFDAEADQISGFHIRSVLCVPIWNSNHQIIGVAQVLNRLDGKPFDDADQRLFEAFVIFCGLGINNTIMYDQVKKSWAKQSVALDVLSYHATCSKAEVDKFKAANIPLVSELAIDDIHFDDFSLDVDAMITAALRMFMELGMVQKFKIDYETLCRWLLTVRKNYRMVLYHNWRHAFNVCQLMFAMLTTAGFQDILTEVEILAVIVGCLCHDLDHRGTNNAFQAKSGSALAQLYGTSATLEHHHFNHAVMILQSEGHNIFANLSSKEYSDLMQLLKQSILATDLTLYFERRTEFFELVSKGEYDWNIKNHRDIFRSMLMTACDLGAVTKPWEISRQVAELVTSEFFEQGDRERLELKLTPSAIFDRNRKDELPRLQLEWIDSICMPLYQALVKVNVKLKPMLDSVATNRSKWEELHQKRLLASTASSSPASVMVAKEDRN
Murine PDE9A, sequence (O70628 whole entry): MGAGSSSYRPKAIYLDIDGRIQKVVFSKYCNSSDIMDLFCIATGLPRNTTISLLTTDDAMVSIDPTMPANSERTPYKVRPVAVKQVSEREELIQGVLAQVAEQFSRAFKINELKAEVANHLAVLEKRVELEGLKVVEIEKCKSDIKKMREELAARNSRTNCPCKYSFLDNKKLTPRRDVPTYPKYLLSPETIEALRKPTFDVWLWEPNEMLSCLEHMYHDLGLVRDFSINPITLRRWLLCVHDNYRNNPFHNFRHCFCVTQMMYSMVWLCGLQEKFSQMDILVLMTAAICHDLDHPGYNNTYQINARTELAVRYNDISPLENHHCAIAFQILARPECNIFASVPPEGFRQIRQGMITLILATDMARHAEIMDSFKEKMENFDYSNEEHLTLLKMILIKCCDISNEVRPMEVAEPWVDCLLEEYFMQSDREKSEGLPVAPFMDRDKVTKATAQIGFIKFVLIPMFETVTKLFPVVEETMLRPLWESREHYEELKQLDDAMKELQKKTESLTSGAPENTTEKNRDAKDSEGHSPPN
PDE7B, sequence (Q9NP56 whole entry): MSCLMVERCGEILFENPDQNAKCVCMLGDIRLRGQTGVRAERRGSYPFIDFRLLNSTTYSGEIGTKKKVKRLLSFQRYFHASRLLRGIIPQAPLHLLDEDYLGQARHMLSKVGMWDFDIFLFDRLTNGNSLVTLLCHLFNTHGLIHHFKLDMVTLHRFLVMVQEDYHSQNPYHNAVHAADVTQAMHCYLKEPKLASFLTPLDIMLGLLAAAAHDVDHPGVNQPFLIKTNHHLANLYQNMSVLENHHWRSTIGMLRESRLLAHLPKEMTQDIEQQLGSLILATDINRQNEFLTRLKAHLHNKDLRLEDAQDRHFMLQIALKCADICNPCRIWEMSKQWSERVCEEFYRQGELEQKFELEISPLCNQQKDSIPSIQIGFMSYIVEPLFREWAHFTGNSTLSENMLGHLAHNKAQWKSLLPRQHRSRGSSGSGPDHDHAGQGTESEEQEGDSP
PDE8A, sequence (O60658 whole entry, looked up): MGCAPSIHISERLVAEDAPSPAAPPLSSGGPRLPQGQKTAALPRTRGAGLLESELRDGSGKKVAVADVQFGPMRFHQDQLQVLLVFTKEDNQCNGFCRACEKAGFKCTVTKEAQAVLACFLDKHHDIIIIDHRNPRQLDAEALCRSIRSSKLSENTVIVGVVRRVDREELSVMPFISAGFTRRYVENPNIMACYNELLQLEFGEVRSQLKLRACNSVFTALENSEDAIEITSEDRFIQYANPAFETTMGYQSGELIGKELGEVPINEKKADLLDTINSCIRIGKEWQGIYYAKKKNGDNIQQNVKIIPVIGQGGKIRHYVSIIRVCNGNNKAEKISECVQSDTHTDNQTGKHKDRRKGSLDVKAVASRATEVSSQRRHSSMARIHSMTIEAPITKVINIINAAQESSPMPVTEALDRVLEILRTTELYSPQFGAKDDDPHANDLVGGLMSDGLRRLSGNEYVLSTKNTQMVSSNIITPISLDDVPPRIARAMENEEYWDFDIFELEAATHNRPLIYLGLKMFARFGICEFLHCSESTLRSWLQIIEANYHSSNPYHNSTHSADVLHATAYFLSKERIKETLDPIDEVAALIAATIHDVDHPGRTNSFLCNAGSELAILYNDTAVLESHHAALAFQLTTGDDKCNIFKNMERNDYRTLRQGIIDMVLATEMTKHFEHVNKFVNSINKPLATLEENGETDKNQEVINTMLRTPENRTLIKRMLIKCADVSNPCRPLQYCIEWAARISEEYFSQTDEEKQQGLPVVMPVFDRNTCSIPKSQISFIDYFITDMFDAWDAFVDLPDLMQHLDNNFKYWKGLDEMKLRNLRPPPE

**Q.** For `CC(=O)Nc1ccc(-c2c[nH]c(=O)cn2)cc1` [SKF94120], which “inhibition on the isolated enzyme” value (Human PDE9A) is on record?
**A.** Its value is “no inhibition”.

**Q.** Which results are given for `CC(C)Cn1c(=O)n(C)c(=O)c2[nH]cnc21` [IBMX]?
**A.** inhibition on the isolated enzyme (Human PDE9A): no inhibition; inhibition of murine PDE9A (Murine PDE9A): not inhibited

**Q.** Which IC50 (PDE11) does the source give for `CCC(CC)n1ncc2c(=O)[nH]c(CC3CCCCC3)nc21` [Example 2, 6-(Cyclohexylmethyl)-1-(1-ethylpropyl)-1,5-dihydro-4H-pyrazolo[3,4-d]-pyrimidin-4-one] here?
**A.** The IC50 was > 4 µM.

**Q.** What about the IC50 (PDE4B) of the same compound?
**A.** The IC50 was > 4 µM.

**Q.** What about the melting point of the same compound?
**A.** Its melting point is 122 °C.

**Q.** And the “LTP / potentiation of fEPSP after weak tetanus” value [1]?
**A.** The value was “significant increase in the LTP; also recorded: significantly augmented the increase in the fEPSP”.

**Q.** What about the IC50 (PDE3B) of the same compound?
**A.** The IC50 was > 4 µM.

**Q.** And the IC50 (PDE8A)?
**A.** Its IC50 is > 4 µM.

**Q.** What about the “cGMP content of primary neurons” value [2] of the same compound?
**A.** Its value is “increase in the cGMP content”.

**Q.** And the IC50 (PDE2A)?
**A.** Its IC50 is > 4 µM.

**Q.** And the “social interaction time in trial 2 compared with vehicle” value [3]?
**A.** Its value is “significantly reduced”.

**Q.** And the IC50 (PDE7B)?
**A.** Its IC50 is > 4 µM.

**Q.** And the IC50 (PDE10A)?
**A.** The IC50 was > 4 µM.

**Q.** What about the IC50 (PDE5A) of the same compound?
**A.** Its IC50 is > 4 µM.

**Q.** For `CCOC(=O)C1=C[C@]2(CC)CCCN3CCc4c(n1c1ccccc41)[C@@H]32` [vinpocetine], which “inhibition on the isolated enzyme” value (Human PDE9A) is on record?
**A.** Its value is “no inhibition”.

**Q.** For `OCCN(CCO)c1nc(N2CCCCC2)c2nc(N(CCO)CCO)nc(N3CCCCC3)c2n1` [dipyridamole], which “inhibition on the isolated enzyme” value (Human PDE9A) is on record?
**A.** Its value is “no inhibition”.

**Q.** Which “inhibition on the isolated enzyme” value (Human PDE9A) does the source give for `COc1ccc(C2CNC(=O)C2)cc1OC1CCCC1` (stereo not shown) [rolipram] here?
**A.** The value was “no inhibition”.

**Q.** Which melting point does the source give for `O=c1[nH]c(CC2CCCCC2)nc2c1cnn2C1CCCC1` here?
**A.** The melting point was 147 °C.
